Experimental data reported in patent publication US5476840A, “New hexapeptidic derivatives, preparation process and use as medicaments of these new derivatives” (Roussel Uclaf, priority 1992, dated 1995).
Ends that are not written are not given here.

Assays:
[1] = tested on: pressure response to endothelin; assay: Antagonism of the effects of endothelin in a demedullated rat (inhibition of the pressure response to endothelin 1); format: in vivo
Method: Male Sprague-Dawley rats are anaesthetized with Nembutal (60 mg/kg) injected by intraperitoneal route. The animals are then demedullated, put under assisted respiration (1 ml/100 g--50 insufflations per minute), then the vagus nerves are sectioned. A carotid artery is catheterized to record the arterial pressure and the products to be studied are injected into the pudendal vein. Ten minutes after the intravenous injection of the solvent or compounds to be tested, the animals receive administrations of endothelin 1 in a cumulative manner (1, 3, 10 and 30 μg/kg i.v.) every 2 minutes. The antagonistic activity is expressed as a percentage of the inhibition of the pressure response to endothelin administered alone, at doses of 3 and 10 μg/kg.

[2] = tested on: demedullated rat; assay: Vasoconstrictive activity in a demedullated rat (increase in mean arterial pressure); format: in vivo; conditions: dose 10 mg/kg, venous route, demedullated male Sprague-Dawley rat
Method: Male Sprague-Dawley rats are anaesthetized with Nembutal (60 mg/kg) injected by intraperitoneal route. The animals are then demedullated, put under assisted respiration (1 ml/100 g--50 insufflations per minute), then the vagus nerves are sectioned. A carotid artery is catheterized to record the arterial pressure and the products to be studied are injected into the pudendal vein.
The animals receive endothelin 1 or the compound to be tested as cumulative injections by venous route, the administrations being spaced 2 minutes apart.
The increase in mean arterial pressure (MAP) induced by each compound is measured and expressed as a percentage variation relative to the initial pressure.

## HAAIIW [Example 1]
[1]; dose 5 μg/kg i.v., 3 μg endothelin
  Percent change in pressure response to endothelin (negative = reduction): -27
[1]; dose 5 μg/kg i.v., 10 μg endothelin
  Percent change in pressure response to endothelin (negative = reduction): -19
[1]; dose 10 μg/kg i.v., 3 μg endothelin
  Percent change in pressure response to endothelin (negative = reduction): -60
[1]; dose 10 μg/kg i.v., 10 μg endothelin
  Percent change in pressure response to endothelin (negative = reduction): -33
[2]
  % increase of MAP: +8%
